From US7659113B2 (priority 2002, dated 2010)
Entries after “also recorded” stand apart in the source; their conditions may differ.

Key:
[1] = tested on: VSV; settings: cited from earlier work
[2] = target: wild type FPV M2 (Influenza A virus, UniProt P03492); experiment: cell-based; type: cell-based
[3] = tested on: influenza virus; settings: cited from earlier work
[4] = tested on: VSV-G pseudotyped SIN-6.1CZW vector; type: cell-based
[5] = tested on: VSV-G pseudotyped SIN-6.1CZW vector; type: cell-based; remark: listed apart in the source
[6] = tested on: FPV HA/M2 pseudotyped SIN-6.1CZW vector; type: cell-based

Sequence of wild type FPV M2 (P03492 whole entry, looked up): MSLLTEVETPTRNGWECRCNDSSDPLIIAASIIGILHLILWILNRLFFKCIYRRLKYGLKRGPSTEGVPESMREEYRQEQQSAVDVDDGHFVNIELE

NC12CC3CC(CC(C3)C1)C2 [amantadine]
VSV replication, sensitivity to amantadine [1]: refractory | effect on vector production [2]: inhibits the augmentation of HA pseudotyping by M2; also recorded: potent dose-dependent effect | inhibition at 5 µM ([2]; read-out: inhibition of M2 augmented vector production): 70% | inhibition of influenza virus replication in cell culture [3]: effective inhibitor | effect on pseudotyping of SIN-6.1CZW by VSV-G [4]: did not affect | effect on gene transfer by VSV-G pseudotyped vector [5]: did not affect gene transfer | effect on gene transfer step of HA pseudotyped vector [6]: affected the gene transfer step; also recorded: Higher doses were required to inhibit transduction than to inhibit vector production
